The assay deals with L1210 leukemia ip in BDF1 mice, survival T/C. In words: NCI In Vivo Anticancer Drug Screen. Data for tumor model L1210 Leukemia (intraperitoneal) in B6D2F1 (BDF1) mice. Conditions: endpoint: mean survival time, higher = longer survival. In short, it runs like this:
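Each compound was tested against a transplantable tumor grown in mice. The endpoint was survival, with treated animals benchmarked against vehicle controls as a simple ratio.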

Where [1] appears, read: dose: 25.0 mg/kg/injection, schedule: Q04DX003 (ip), vehicle: Klucel (hydroxypropylcellulose) (HPC).
The mark [2] stands for this setting: dose: 50.0 mg/kg/injection, schedule: Q04DX003 (ip), vehicle: Klucel (hydroxypropylcellulose) (HPC).
Setting [3] is: dose: 100.0 mg/kg/injection, schedule: Q01DX009 (ip), vehicle: Klucel (hydroxypropylcellulose) (HPC).
Setting [4] is: dose: 100.0 mg/kg/injection, schedule: Q04DX003 (ip), vehicle: Klucel (hydroxypropylcellulose) (HPC).
Where [5] appears, read: dose: 100.0 mg/kg/injection, schedule: Q01DX009 (ip), vehicle: saline with Tween-80.
Setting [6] is: dose: 200.0 mg/kg/injection, schedule: Q01DX009 (ip), vehicle: saline with Tween-80.
Setting [7] is: dose: 200.0 mg/kg/injection, schedule: Q01DX009 (ip), vehicle: Klucel (hydroxypropylcellulose) (HPC).
The mark [8] stands for this setting: dose: 200.0 mg/kg/injection, schedule: Q04DX003 (ip), vehicle: Klucel (hydroxypropylcellulose) (HPC).
Where [9] appears, read: dose: 400.0 mg/kg/injection, schedule: Q01DX009 (ip), vehicle: Klucel (hydroxypropylcellulose) (HPC).
[10] abbreviates: dose: 400.0 mg/kg/injection, schedule: Q04DX003 (ip), vehicle: Klucel (hydroxypropylcellulose) (HPC).

Molecules are shown by their SMILES. Values joined by “and” are separate entries in the source; they are usually repeats but may differ in a detail not shown here. Identical values can stand only once. Toxic doses and inconclusive results are not listed.

For `C=Cc1c2ccccc2cc2c1ccc1ccccc12`, the T/C by setting is: (dose: 100.0 mg/kg/injection, schedule: Q04DX002 (ip), vehicle: other) 102 % of control; (dose: 200.0 mg/kg/injection, schedule: Q04DX002 (ip), vehicle: other) 106 % of control; (dose: 400.0 mg/kg/injection, schedule: Q04DX002 (ip), vehicle: other) 109 % of control.
Consider `CCC(C)C(C#N)(CCN(C)C)Cc1cccc2ccccc12` (stereo unspecified), for which the T/C reads like this: under setting [1], 97 % of control; under setting [2], 92 % of control; under setting [3], 100 % of control; under setting [4], 103 % of control.
Regarding `FCCSc1ncnc2nc[nH]c12`, the T/C was 113 % of control (dose: 20.0 mg/kg/injection, schedule: Q04DX003 (ip), vehicle: saline with Tween-80); 116 % of control (dose: 29.5 mg/kg/injection, schedule: Q04DX003 (ip), vehicle: saline with Tween-80); 159 % of control (dose: 100.0 mg/kg/injection, schedule: Q04DX003 (ip), vehicle: saline with Tween-80).
On to `CCOC(=O)/C(O)=C\c1nnc(Cl)cc1Cl`, for which the T/C was 93 % of control (dose: 75.0 mg/kg/injection, schedule: Q04DX002 (ip), vehicle: Klucel (hydroxypropylcellulose) (HPC)); 96 % of control (dose: 150.0 mg/kg/injection, schedule: Q04DX002 (ip), vehicle: Klucel (hydroxypropylcellulose) (HPC)); 116 % of control (dose: 300.0 mg/kg/injection, schedule: Q04DX002 (ip), vehicle: Klucel (hydroxypropylcellulose) (HPC)).
For the molecule `CC(=O)N1C(C)C1(c1ccccc1)[n+]1ccccc1` (stereo unspecified), the T/C was 98 % of control (dose: 12.0 mg/kg/injection, schedule: Q04DX003 (ip), vehicle: saline); 101 % of control (dose: 12.5 mg/kg/injection, schedule: Q01DX009 (ip), vehicle: saline); 92 % of control (dose: 25.0 mg/kg/injection, schedule: Q01DX009 (ip), vehicle: saline); 88 % of control (dose: 25.0 mg/kg/injection, schedule: Q04DX003 (ip), vehicle: saline); 101 % of control (dose: 50.0 mg/kg/injection, schedule: Q01DX009 (ip), vehicle: saline); 104 % of control (dose: 50.0 mg/kg/injection, schedule: Q04DX003 (ip), vehicle: saline).
Take `O=C(/C=C\C(=O)Nc1ccc(C2=NCCN2)cc1)Nc1ccc(C2=NCCN2)cc1`: the T/C runs as follows: (dose: 15.0 mg/kg/injection, schedule: Q01DX Z (ip), vehicle: saline) 124 % of control; (dose: 30.0 mg/kg/injection, schedule: Q01DX Z (ip), vehicle: saline) 177 % of control; (dose: 30.0 mg/kg/injection, schedule: Q01DX Z (oral), vehicle: saline) 103 % of control; (dose: 60.0 mg/kg/injection, schedule: Q01DX Z (ip), vehicle: saline) 170 % of control; (dose: 60.0 mg/kg/injection, schedule: Q01DX Z (oral), vehicle: saline) 114 % of control; (dose: 120.0 mg/kg/injection, schedule: Q01DX Z (oral), vehicle: saline) 103 % of control. Moreover, the T/C (dose: 240.0 mg/kg/injection, schedule: Q01DX Z (oral), vehicle: saline) was 102 % of control.
Regarding `CC12CCCCC1=CC(O)CC2` (stereo unspecified), the T/C by setting is: (dose: 50.0 mg/kg/injection, schedule: Q01DX009 (ip), vehicle: saline with Tween-80) 98 % of control; under setting [5], 91 % of control; under setting [6], 94 % of control.
As for `CCc1ccc(NC(=O)C(c2ccccc2)c2ccccc2)cc1`, the T/C reads like this: under setting [2], 101 % of control; under setting [3], 92 % of control; under setting [4], 100 % of control; under setting [7], 89 % of control; under setting [8], 93 % of control; under setting [9], 89 % of control. Also, under setting [10], the T/C is 93 % of control.
Turning to `Cc1ccc(S(=O)(=O)Nc2ccc(I)c(Cl)c2Cl)cc1`, the T/C runs as follows: under setting [5], 101 % of control; under setting [6], 104 % of control; (dose: 400.0 mg/kg/injection, schedule: Q01DX009 (ip), vehicle: saline with Tween-80) 110 % of control.
With `O=S(=O)(c1ccc(Cl)cc1)C(F)F`, the T/C was 89 % of control (dose: 12.5 mg/kg/injection, schedule: Q01DX009 (ip), vehicle: Klucel (hydroxypropylcellulose) (HPC)); 91 % of control (dose: 12.5 mg/kg/injection, schedule: Q04DX003 (ip), vehicle: Klucel (hydroxypropylcellulose) (HPC)); 93 % of control (dose: 25.0 mg/kg/injection, schedule: Q01DX009 (ip), vehicle: Klucel (hydroxypropylcellulose) (HPC)); 89 % of control under setting [1]; 91 % of control (dose: 50.0 mg/kg/injection, schedule: Q01DX009 (ip), vehicle: Klucel (hydroxypropylcellulose) (HPC)); 97 % of control under setting [2].
Take `Cc1cc(OC(=O)Nc2cc(Cl)ccc2C)c(C(C)C)cc1Cl`: the T/C is, setting by setting: (dose: 100.0 mg/kg/injection, schedule: Q01DX001 (ip), vehicle: Klucel (hydroxypropylcellulose) (HPC)) 90 % of control; under setting [3], 102 % of control and 88 % of control; (dose: 100.0 mg/kg/injection, schedule: Q04DX002 (ip), vehicle: Klucel (hydroxypropylcellulose) (HPC)) 96 % of control; under setting [4], 103 % of control; (dose: 200.0 mg/kg/injection, schedule: Q01DX001 (ip), vehicle: Klucel (hydroxypropylcellulose) (HPC)) 91 % of control; under setting [7], 97 % of control. Moreover, the T/C is 94 % of control (dose: 200.0 mg/kg/injection, schedule: Q04DX002 (ip), vehicle: Klucel (hydroxypropylcellulose) (HPC)); 94 % of control under setting [8]; 88 % of control (dose: 400.0 mg/kg/injection, schedule: Q01DX001 (ip), vehicle: Klucel (hydroxypropylcellulose) (HPC)); 94 % of control and 86 % of control under setting [9]; 91 % of control (dose: 400.0 mg/kg/injection, schedule: Q04DX002 (ip), vehicle: Klucel (hydroxypropylcellulose) (HPC)); 96 % of control under setting [10].
In the case of `CC1NC(c2ccccc2)N(C(Cc2ccccc2)C(=O)O)C1=O` (stereo unspecified), the T/C runs as follows: (dose: 50.0 mg/kg/injection, schedule: Q01DX001 (ip), vehicle: saline) 94 % of control; (dose: 100.0 mg/kg/injection, schedule: Q01DX001 (ip), vehicle: saline) 89 % of control; (dose: 200.0 mg/kg/injection, schedule: Q01DX001 (ip), vehicle: saline) 99 % of control.
Turning to `O=NN(CCCl)C(=O)NC1CCC(NC(=O)N(CCCl)N=O)CC1` (stereo unspecified), the T/C is 162 % of control and 286 % of control (dose: 44.0 mg/kg/injection, schedule: Q01DX001 (ip), vehicle: other); 247 % of control (dose: 63.0 mg/kg/injection, schedule: Q01DX001 (ip), vehicle: carboxymethylcellulose (CMC)); 168 % of control and 328 % of control (dose: 67.0 mg/kg/injection, schedule: Q01DX001 (ip), vehicle: other); 267 % of control (dose: 82.0 mg/kg/injection, schedule: Q01DX001 (ip), vehicle: carboxymethylcellulose (CMC)); 305 % of control and 314 % of control (dose: 100.0 mg/kg/injection, schedule: Q01DX001 (ip), vehicle: other); 310 % of control (dose: 125.0 mg/kg/injection, schedule: Q01DX001 (ip), vehicle: carboxymethylcellulose (CMC)). Also, the T/C reads like this: (dose: 127.0 mg/kg/injection, schedule: Q01DX001 (ip), vehicle: carboxymethylcellulose (CMC)) 342 % of control; (dose: 150.0 mg/kg/injection, schedule: Q01DX001 (ip), vehicle: other) 268 % of control and 180 % of control; (dose: 187.0 mg/kg/injection, schedule: Q01DX001 (ip), vehicle: carboxymethylcellulose (CMC)) 290 % of control; (dose: 225.0 mg/kg/injection, schedule: Q01DX001 (ip), vehicle: other) 285 % of control and 178 % of control; (dose: 255.0 mg/kg/injection, schedule: Q01DX001 (ip), vehicle: carboxymethylcellulose (CMC)) 344 % of control; (dose: 280.0 mg/kg/injection, schedule: Q01DX001 (ip), vehicle: carboxymethylcellulose (CMC)) 275 % of control. In addition, the T/C was 306 % of control (dose: 337.0 mg/kg/injection, schedule: Q01DX001 (ip), vehicle: other) and 181 % of control (dose: 510.0 mg/kg/injection, schedule: Q01DX001 (ip), vehicle: carboxymethylcellulose (CMC)).
Turning to `Cc1cccc(C)c1NC(=O)C[N+](C)(C)N`, the T/C by setting is: (dose: 100.0 mg/kg/injection, schedule: Q04DX002 (ip), vehicle: saline) 94 % of control; (dose: 200.0 mg/kg/injection, schedule: Q04DX002 (ip), vehicle: saline) 94 % of control.

(Values after PubChem BioAssay AID248 (DTP/NCI, 2004).)
